21 compounds from ChEMBL document CHEMBL1133278, “1-[2-[(Heteroarylmethoxy)aryl]carbamoyl]indolines are selective and orally active 5-HT2C receptor inverse agonists” (Bioorg Med Chem Lett, 2000) can be followed below.

Broadly, the Ki is the equilibrium dissociation constant of an inhibitor or competing ligand from its target. Lower therefore signals tighter binding.

In test [1] the target is Serotonin receptor (2b and 2c) (Homo sapiens) (UniProt P41595+P28335). Description: Selectivity at serotonin 5-HT 2C receptor compared to serotonin 5-HT 2B receptor. In kind it is protein assay.
In test [2] the target is 5-hydroxytryptamine receptor 2A (Homo sapiens, UniProt P28223). Description: In vitro binding affinity at human cloned 5-hydroxytryptamine 2A receptor of HEK293 cells by [3H]ketanserin displacement. In kind it is cell-based.
5-hydroxytryptamine receptor 2A, sequence (P28223 whole entry): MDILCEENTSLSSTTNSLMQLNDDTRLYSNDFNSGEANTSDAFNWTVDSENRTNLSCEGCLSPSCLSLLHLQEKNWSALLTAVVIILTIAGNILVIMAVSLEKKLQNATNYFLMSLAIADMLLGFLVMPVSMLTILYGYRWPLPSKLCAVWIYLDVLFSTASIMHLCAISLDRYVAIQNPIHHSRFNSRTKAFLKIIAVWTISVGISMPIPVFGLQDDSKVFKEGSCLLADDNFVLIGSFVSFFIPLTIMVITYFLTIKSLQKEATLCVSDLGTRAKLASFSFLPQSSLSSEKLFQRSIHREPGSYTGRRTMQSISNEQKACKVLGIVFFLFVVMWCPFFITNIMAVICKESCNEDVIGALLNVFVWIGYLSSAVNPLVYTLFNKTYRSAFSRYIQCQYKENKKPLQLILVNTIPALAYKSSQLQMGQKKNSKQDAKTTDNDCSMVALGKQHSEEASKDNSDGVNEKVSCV
The target of test [3] is T1, 5-hydroxytryptamine receptor 2C (Homo sapiens, UniProt P28335).
T1 sequence (P28335 whole entry): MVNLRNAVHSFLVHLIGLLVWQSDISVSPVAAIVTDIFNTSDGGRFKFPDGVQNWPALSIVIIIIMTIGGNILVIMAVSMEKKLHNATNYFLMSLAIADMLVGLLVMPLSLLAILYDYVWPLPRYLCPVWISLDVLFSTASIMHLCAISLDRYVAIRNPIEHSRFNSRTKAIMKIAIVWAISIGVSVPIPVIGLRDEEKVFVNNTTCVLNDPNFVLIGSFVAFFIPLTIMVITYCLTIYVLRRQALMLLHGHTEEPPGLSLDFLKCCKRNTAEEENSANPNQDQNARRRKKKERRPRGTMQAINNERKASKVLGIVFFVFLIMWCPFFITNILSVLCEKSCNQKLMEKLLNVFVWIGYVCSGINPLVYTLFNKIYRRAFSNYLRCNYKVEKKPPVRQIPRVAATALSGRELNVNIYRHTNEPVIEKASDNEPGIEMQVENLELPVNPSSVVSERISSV
Description: In vitro binding affinity at human cloned 5-hydroxytryptamine 2C receptor of HEK293 cells by [3H]mesulergine displacement. In kind it is cell-based.

Test [4] deals with Serotonin 2 receptors; 5-HT2a & 5-HT2c (Homo sapiens) (UniProt P28223+P28335). Description: Selectivity at 5-HT 2C receptor compared to serotonin 5-HT 2A receptor. It counts as protein assay.
Serotonin 2 receptors; 5-HT2a & 5-HT2c (Homo sapiens), sequence (P28223 whole entry, looked up, one chain of several): as the sequence (P28223 whole entry) above
Test [5] has as its target 5-hydroxytryptamine receptor 2B (Homo sapiens, UniProt P41595). Description: In vitro binding affinity at human cloned 5-hydroxytryptamine 2B receptor of HEK293 cells by [3H]5-HT displacement. It counts as cell-based.
Test [6] concerns Rattus norvegicus. Description: Percent reversal of mCPP induced hypolocomotion after peroral administration at 5 mg/kg in rat. The note with it: route oral. It counts as functional.
Test [7] concerns Rattus norvegicus. The test is described as follows: Dose required to reverse mCPP induced hypolocomotion by 50% at 7 mg/kg, ip administration 30 min pretest in rat. In kind it is functional. The note with it: po, 0.5 h, read-out: ID50 (the source's name).

5-hydroxytryptamine receptor 2B, sequence (P41595 whole entry): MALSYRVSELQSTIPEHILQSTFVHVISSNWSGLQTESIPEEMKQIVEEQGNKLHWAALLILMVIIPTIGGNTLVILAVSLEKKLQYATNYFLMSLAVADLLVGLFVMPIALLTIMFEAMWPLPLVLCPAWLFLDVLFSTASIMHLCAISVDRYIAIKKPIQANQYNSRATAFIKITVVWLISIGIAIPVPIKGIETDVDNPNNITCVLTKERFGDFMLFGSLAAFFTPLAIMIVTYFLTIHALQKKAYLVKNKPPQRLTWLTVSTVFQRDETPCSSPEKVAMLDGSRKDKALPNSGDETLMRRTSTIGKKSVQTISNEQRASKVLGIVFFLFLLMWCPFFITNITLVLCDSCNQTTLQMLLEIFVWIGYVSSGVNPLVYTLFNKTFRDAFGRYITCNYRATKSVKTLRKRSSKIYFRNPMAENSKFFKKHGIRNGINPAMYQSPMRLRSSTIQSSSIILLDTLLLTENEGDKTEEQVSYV

Turning to `Cc1cc2c(cc1Cl)N(C(=O)Nc1ccc(OCc3nccn3C)nc1)CC2`, the Selectivity in test [1] is 2.5; in test [4], 50. The Ki in test [2] was 251 nM; in test [3], 5.01 nM; in test [5] it was 12.6 nM.
Turning to `Cc1cc2c(cc1Cl)N(C(=O)Nc1ccc(OCc3ccccn3)nc1)CC2`, the Selectivity is 40 in test [1] and > 320 in test [4]. Further, the figures for the Ki in test [2], in test [3] and in test [5] were > 794 nM, 2.51 nM and 100 nM, respectively. For the same compound, the Reversal in test [6] is given as 41%.
Turning to `Cc1cc2c(cc1Cl)N(C(=O)Nc1ccc(OCc3nccs3)nc1)CC2`, the Selectivity was 20 in test [1] and > 160 in test [4]. In addition, the figures for the Ki in test [2], in test [3] and in test [5] were > 794 nM, 5.01 nM and 100 nM, respectively. Besides, the Reversal in test [6] is listed as 2%.
On to `Cc1cccc(COc2ccc(NC(=O)N3CCc4cc(C)c(C(F)(F)F)cc43)cn2)n1`, for which the Selectivity in test [1] stood at 4; in test [4], 160. For the same compound, the Ki in test [2] was 1000 nM; in test [3] it was 6.31 nM; in test [5] it was 25.1 nM.
Turning to `O=C(Nc1ccc(OCc2ccccn2)nc1)N1CCc2cc(Cl)ccc21`, the Selectivity in test [1] was 30; in test [4] it was > 160. In addition, the Ki in test [2] is > 5010 nM; in test [3] it was 31.6 nM; in test [5], 1000 nM.
In the same order, the values of `Cc1cc2c(cc1Cl)N(C(=O)Nc1ccc(OCc3ccncc3)nc1)CC2` are 6, 60, 79.4 nM, 1.26 nM and 7.94 nM.
As for `Cc1cc2c(cc1C(F)(F)F)N(C(=O)Nc1ccc(OCc3cnccn3)nc1)CC2`, the values for the Selectivity in test [1] and in test [4] were 20 and 630, respectively. The Ki in test [2] is 316 nM; in test [3], 0.501 nM; in test [5] it was 10 nM. The Reversal in test [6] came to 58%.
Regarding `Cc1cc2c(cc1C(F)(F)F)N(C(=O)Nc1ccc(OCc3ccccn3)cc1)CC2`, the values for the Selectivity in test [1] and in test [4] were 10 and 160, respectively. Further, the Ki was 398 nM in test [2], 2.51 nM in test [3] and 25.1 nM in test [5]. Further, in test [6], the Reversal amounted to 84%.
`Cc1cc2c(cc1C(F)(F)F)N(C(=O)Nc1ccc(OCc3ccccn3)nn1)CC2`: the values for the Selectivity in test [1] and in test [4] were 15 and 50, respectively. Also, the Ki is 251 nM in test [2], 5.01 nM in test [3] and 79.4 nM in test [5].
The like results for `Cc1cc2c(cc1C(F)(F)F)N(C(=O)Nc1ccc(COc3ccccn3)nc1)CC2` were, in that order, 40, 20, 100 nM, 5.01 nM and 200 nM.
Take `Cc1cc2c(cc1C(F)(F)F)N(C(=O)Nc1ccc(CCc3ccccn3)nc1)CC2`: the Selectivity in test [1] amounted to 6; in test [4], 50. The Ki was 158 nM in test [2], 3.16 nM in test [3] and 20 nM in test [5].
In the same order, the values of `O=C(Nc1ccc(OCc2ccccn2)nc1)N1CCc2ccc(C(F)(F)F)cc21` are 30, 30, 251 nM, 7.94 nM and 251 nM.
The like results for `O=C(Nc1ccc(OCc2ccccn2)nc1)N1CCc2c(Cl)cccc21` were, in that order, 13, 60, 5010 nM, 79.4 nM and 1000 nM.
In the case of `O=C(Nc1ccc(OCc2ccccn2)nc1)N1CCc2cc(Br)ccc21`, the Selectivity was 30 in test [1] and 160 in test [4]. In addition, the values for the Ki in test [2], in test [3] and in test [5] were 2510 nM, 15.8 nM and 501 nM, respectively. Moreover, the ED50 in test [7] stood at 2.4 mg/kg.
As for `Cc1cc2c(cc1C(F)(F)F)N(C(=O)Nc1ccc(OCc3ncccc3C)nc1)CC2`, the Selectivity in test [1] was found to be 4; in test [4] it was 40. Besides, the values for the Ki in test [2], in test [3] and in test [5] were 158 nM, 3.98 nM and 15.8 nM, respectively.
With `Cc1cc2c(cc1C(F)(F)F)N(C(=O)Nc1ccc(OCc3cncn3C)nc1)CC2`, the figures for the Selectivity in test [1] and in test [4] were 2 and 25, respectively. Moreover, the Ki in test [2] was 100 nM; in test [3] it was 3.98 nM; in test [5] it was 6.31 nM.
`Cc1cc2c(cc1C(F)(F)F)N(C(=O)Nc1ccc(OCc3ccccn3)nc1)CC2`: the Selectivity came to 60 in test [1] and 1300 in test [4]. In addition, the Ki in test [2] was 631 nM; in test [3], 0.501 nM; in test [5], 31.6 nM. Besides, the ED50 in test [7] is 1 mg/kg.
As to `Cc1cc2c(cc1C(F)(F)F)N(C(=O)Nc1cnc(OCc3ccccn3)c(C)c1)CC2`, the Selectivity in test [1] was found to be 20; in test [4], 100. For the same compound, the Ki in test [2] was 39.8 nM; in test [3], 0.398 nM; in test [5], 7.94 nM. Also, the ED50 in test [7] stood at 0.3 mg/kg.
For `Cc1cc2c(cc1C(F)(F)F)N(C(=O)Nc1ccc(OCCc3ccccn3)nc1)CC2`, the figures for the Selectivity in test [1] and in test [4] were 2 and 200, respectively. Besides, the Ki was 2000 nM in test [2], 10 nM in test [3] and 20 nM in test [5].
In the case of `O=C(Nc1ccc(OCc2ccccn2)nc1)N1CCc2cc(C(F)(F)F)ccc21`, the Selectivity in test [1] was 60; in test [4], 800. For the same compound, the Ki in test [2] was 5010 nM; in test [3] it was 6.31 nM; in test [5] it was 398 nM. Moreover, the ED50 in test [7] came out at 1.6 mg/kg.
For the compound `Cc1cc2c(cc1Cl)N(C(=O)Nc1ccc(OCc3cccnc3)nc1)CC2`, the figures for the Selectivity in test [1] and in test [4] were 1 and > 30, respectively. In addition, the inhibitory constant (Ki) in test [2] was > 794 nM; in test [3] it was 25.1 nM; in test [5] it was 25.1 nM.
